# Target: T1, cathepsin B (cathepsin B-like cysteine protease) (Leishmania chagasi, UniProt Q9GQN7)
# T1 construct: native enzyme in amastigote lysate
# Test: spectrofluorometric protease assay in amastigote lysate with cathepsin B-specific substrate Abz-Gly-Ile-Val-Arg-Ala-Lys(Dnp)-OH
# Assay type: biochemical
# T1 sequence (Q9GQN7 entry or part of it): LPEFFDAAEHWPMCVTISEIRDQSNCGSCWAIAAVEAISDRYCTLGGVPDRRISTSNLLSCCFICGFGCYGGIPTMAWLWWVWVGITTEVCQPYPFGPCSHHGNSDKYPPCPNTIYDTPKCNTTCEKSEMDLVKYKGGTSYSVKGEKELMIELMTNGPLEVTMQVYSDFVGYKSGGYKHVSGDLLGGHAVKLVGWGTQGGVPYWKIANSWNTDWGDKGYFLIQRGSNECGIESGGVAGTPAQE
row,Compound,IC50 [µM]
1,CCCNC(=O)[C@H]1O[C@@H]1C(=O)N[C@H](C(=O)N1CCC[C@H]1C(=O)O)[C@@H](C)CC [CA074],2.41 ± 0.15
2,"COc1ccc([Te]2(Cl)OC3(CCCCC3)/C2=C\Cl)cc1 (centres unmarked) [RF07, 4-{2-Chloro-3-[chloromethylidene]-1-oxa-2-λ^4-telluraspiro[3.5]non-2-yl}phenyl Methyl Ether]",4.47 ± 0.13
